According to paper PMC6321136, “Combined In Vitro Studies and in Silico Target Fishing for the Evaluation of the Biological Activities of Diphylleia cymosa and Podophyllum hexandrum” (Molecules, 2018):
Like-named read-outs stand apart in the source and are kept apart here.

What was measured:
[1] = system: Enterohemorrhagic E. coli ATCC 43895-EHEC; experiment: Antibacterial microdilution assay; type: cell-based, Escherichia coli
[2] = system: Salmonella choleraesuis subs. choleraesuis sorotype Typhi BM/Panama-TY2; experiment: Antibacterial microdilution assay; type: cell-based
[3] = target: T1, AChE from Electropardus electricous type VI-S (Electrophorus electricus, UniProt O42275); experiment: AChE inhibition microplate assay (Ellman); type: biochemical; details: 400 μg/mL; read-out: Inhibition of AChE Microplate (%I)
T1 construct: purchased Sigma-Aldrich, St. Louis, MO, USA type VI-S (catalogue number not given)
Procedure: AChE inhibition assay was performed on a 96-well microplate according to Ellman’s method with adaptations. Initially, the extracts were solubilized on MeOH, at 20 mg/mL, and diluted to 4 mg/mL using Tris/HCl buffer solution (50 mM, pH 8.0). A portion of 25 µL of the samples (4 mg/mL) were added to the wells of the microplate, as well as 50 μL of 0.1% BSA solution in Tris/HCl Buffe (pH 8.0), 125 μL of DTNB in Tris/HCl (3 mM) containing NaCl (10 mM) and MgCl2 (20 mM). Subsequently, 25 μL of the ATCI aqueous solution (15 mM) was added to all wells. Then, a background reading was performed at 405 nm using microplate reader (Multiskan Go, Thermo Scientific, Whaltham, MA, USA). The enzymatic reaction was initiated after the addition of 25 µL of AChE solution (AChE from Electropardus electricous type VI-S, 0.2 U/mL, Sigma-Aldrich, St. Louis, MO, USA) in Tris/HCl buffer (50 mM, pH 8.0) containing 0.1% BSA. The kinetic cycle was performed in a period of 25 min, with readings at 5 min intervals, at 405 nm. Physostigmine (Eserine, Sigma, St. Louis, MO, USA) was employed as the positive control. […] The assay was performed in triplicate and the % of inhibition (%I) was calculated according to the following equation: %I = [(a − b)/a] × 100, where a = ΔA/min of control; b = ΔA/min of test sample; ΔA = change in absorbance between time x and time zero. […]

[4] = set-up: method as in Dar et al. [63]; details: ref Dar et al. [63]; cited from earlier work
[5] = system: Agonist, AP-1; set-up: method as in PubChem Bioassay AID 1159528; details: ref PubChem Bioassay AID 1159528; cited from earlier work
[6] = system: Agonist, constitutive androstane receptor (CAR); set-up: method as in PubChem Bioassay AID 1224839; details: ref PubChem Bioassay AID 1224839; cited from earlier work
[7] = system: Agonist, p53; set-up: method as in PubChem Bioassay AID 651631; details: ref PubChem Bioassay AID 651631; cited from earlier work
[8] = system: Agonist, peroxisome proliferator-activated receptor delta (PPARd); set-up: method as in PubChem Bioassay AID 743227; details: ref PubChem Bioassay AID 743227; cited from earlier work
[9] = system: Agonist, retinoic acid receptor (RAR); set-up: method as in PubChem Bioassay AID 1159553; details: ref PubChem Bioassay AID 1159553; cited from earlier work
[10] = system: Antagonist, androgen receptor (AR); set-up: method as in PubChem Bioassay AID 743035; details: ref PubChem Bioassay AID 743035; cited from earlier work
[11] = system: Antagonist, androgen receptor (AR); set-up: method as in PubChem Bioassay AID 743042; details: ref PubChem Bioassay AID 743042; cited from earlier work
[12] = system: Antagonist, androgen receptor (AR); set-up: method as in PubChem Bioassay AID 1259243; details: ref PubChem Bioassay AID 1259243; cited from earlier work
[13] = system: Antagonist, androgen receptor (AR); set-up: method as in PubChem Bioassay AID 1259247; details: ref PubChem Bioassay AID 1259247; cited from earlier work
[14] = system: Antagonist, retinoid-related orphan receptor gamma (ROR-gamma); set-up: method as in PubChem Bioassay AID 1159523; details: ref PubChem Bioassay AID 1159523; cited from earlier work
[15] = system: Anticancer, colon; set-up: method as in PubChem Bioassay AID 1834; details: ref PubChem Bioassay AID 1834; cited from earlier work
[16] = system: Anticancer, Leukemia; set-up: method as in PubChem Bioassay AID 250; details: ref PubChem Bioassay AID 250; cited from earlier work
[17] = system: Cell Cycle Modulation (counterscreen); set-up: method as in PubChem Bioassay AID 1117349; details: ref PubChem Bioassay AID 1117349; cited from earlier work
[18] = system: Cell Cycle Modulation (counterscreen); set-up: method as in PubChem Bioassay AID 1117350; details: ref PubChem Bioassay AID 1117350; cited from earlier work
[19] = system: Cytotoxicity; set-up: method as in PubChem Bioassay AID 624476; details: ref PubChem Bioassay AID 624476; cited from earlier work
[20] = system: Cytotoxicity, A549; set-up: method as in PubChem Bioassay AID 371; details: ref PubChem Bioassay AID 371; cited from earlier work
[21] = system: Cytotoxicity, Agonist, endoplasmic reticulum stress response; set-up: method as in PubChem Bioassay AID 1159517; details: ref PubChem Bioassay AID 1159517; cited from earlier work
[22] = system: Cytotoxicity, Agonist, peroxisome proliferator-activated receptor delta (PPARd); set-up: method as in PubChem Bioassay AID 743211; details: ref PubChem Bioassay AID 743211; cited from earlier work

T1 sequence (O42275 24-633): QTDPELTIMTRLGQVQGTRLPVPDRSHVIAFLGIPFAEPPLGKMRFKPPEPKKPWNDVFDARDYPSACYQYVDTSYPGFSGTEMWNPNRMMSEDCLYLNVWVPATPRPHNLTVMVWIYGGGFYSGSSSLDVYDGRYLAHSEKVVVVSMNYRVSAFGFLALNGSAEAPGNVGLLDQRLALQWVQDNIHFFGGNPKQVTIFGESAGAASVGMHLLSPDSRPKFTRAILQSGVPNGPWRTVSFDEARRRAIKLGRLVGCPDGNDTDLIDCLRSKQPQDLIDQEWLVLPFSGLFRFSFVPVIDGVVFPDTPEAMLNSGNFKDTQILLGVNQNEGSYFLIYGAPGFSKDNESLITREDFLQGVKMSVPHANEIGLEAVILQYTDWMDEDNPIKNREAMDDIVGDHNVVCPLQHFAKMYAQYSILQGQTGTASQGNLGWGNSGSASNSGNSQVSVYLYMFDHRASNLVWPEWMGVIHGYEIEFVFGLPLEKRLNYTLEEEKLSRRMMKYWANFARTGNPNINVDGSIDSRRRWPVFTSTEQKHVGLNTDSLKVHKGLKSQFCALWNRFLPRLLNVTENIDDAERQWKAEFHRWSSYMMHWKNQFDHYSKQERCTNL

Question: What does the source list for `COc1cc([C@@H]2c3cc4c(cc3[C@H](O)[C@H]3COC(=O)[C@H]23)OCO4)cc(OC)c1OC` [Podophyllotoxin, podophyllotoxin]?
Answer: EHEC E. coli Mean ± SD (percentage of inhibition of microbial growth) ([1]; 250 µg/mL): No antibacterial activity; inhibition at 250 µg/mL ([1]; Escherichia coli, ATCC43895, read-out: EHEC E. coli Mean ± SD (percentage of inhibition of microbial growth)): 33 ± 7.76%; Salmonella Typhi Mean ± SD (percentage of inhibition of microbial growth) ([2]; 250 µg/mL): No antibacterial activity; inhibition at 250 µg/mL ([2]; Salmonella enterica, read-out: Salmonella Typhi Mean ± SD (percentage of inhibition of microbial growth)): 31.6 ± 7.54%; inhibition at 400 µg/mL [3]: 32.7 ± 5.38%; IC50 TBARS lipid peroxidation [4]: higher than 250 μg/mL; Exper. Activity [5]: Active; Exper. Activity [6]: Inactive; Exper. Activity [7]: Inactive; Exper. Activity [8]: Inactive; Exper. Activity [9]: Inactive; Exper. Activity [10]: Active; Exper. Activity [11]: Inactive; Exper. Activity [12]: Inactive; Exper. Activity [13]: Inactive; Exper. Activity [14]: Active; Exper. Activity [15]: Active; Exper. Activity [16]: Inactive; Exper. Activity [17]: Active; Exper. Activity [18]: Active; Exper. Activity [19]: Inactive; Exper. Activity [20]: Active; Exper. Activity [21]: Inactive; Exper. Activity [22]: Inactive
